Assay results as given in patent publication US11510993B2, “Antibody drug conjugate for anti-inflammatory applications” (Merck Sharp & Dohme Corp., priority 2015, dated 2022).
pEC50: −log10 of the molar value. Like-named read-outs stand apart in the source and are kept apart here.

Tests used:
[1] = not given; remark: listed apart in the source
[2] = In vitro stability of drug-linkers in rat liver lysosomal lysate (parent and released dexamethasone, LC-MS/MS); conditions: for rate of dexamethasone release in rat lysosomal extract (in words): compared with 3-4, 5-3 releasing faster than 4-3
Experimental: Rat Liver lysosomes were available commercially with a pool of 6 animals. All linker compounds were solubilized in DMSO to form each 10 mM stock solution. Dosing solution for each linker was prepared by serial dilution of each stock solution using 1:3 acetonitrile: water. All solutions were kept on ice during the experiment.
Rat lysosomes were pre-warmed in a 37° C. water bath in an appropriate volume to collect samples over a time course from 0 minutes through 6 hours. Incubating lysosomes were mixed well just prior to sampling to give a homogenous mixture. Aliquots of lysosomes were removed at appropriate time points, added to cold stopping solution, which was methanol containing an appropriate internal standard, and mixed rigorously. The samples were centrifuged at 4000 RPM for 10 minutes after which equal volumes of supernatant were diluted with cold deionized water. The samples were ready for analysis.
(§3) A Thermo LX-2 ultra-performance liquid chromatography system coupled with a Sciex API5000 triple quadrupole mass spectrometer was used for the analysis. The payload and drug-linkers were retained and separated by a C18 column and detected by the mass spectrometer. […] Samples were kept in cold stack set at 5° C.

[3] = In vitro stability of drug-linkers in human whole blood (parent and released dexamethasone, LC-MS/MS)
Experimental: General Experimental Procedure Human Blood Incubation Human blood was collected the morning of the experiment from at least 3 individuals using K2EDTA as the anticoagulant. An equal volume from each individual was combined for use in the experiment. The experiment started no more than 2 hours after the blood collection. All drug-linker conjugates were solubilized in DMSO to form each 10 mM stock solution. Dosing solution for each linker was prepared by serial dilution of each stock solution using 1:3 acetonitrile:water. All solutions were kept on ice during the experiment.
Human blood was pre-warmed in a 37° C. water bath in an appropriate volume to collect samples over a time course from 0 through 6 hours. Incubating blood was mixed well just prior to sampling to give a homogenous mixture. Aliquots of blood were removed at appropriate time points, added to cold stopping solution, which was methanol containing an appropriate internal standard, and mixed rigorously. The samples were centrifuged at 4000 RPM for 10 minutes after which equal volumes of the supernatant fractions were diluted with cold deionized water. The samples were then ready for analysis.
as §3

[4] = test system: GILZ mRNA in HUT-78 cells (CD74 positive T lymphoma); test: GILZ mRNA induction in HUT-78 cells (RT-PCR); format: cell-based, human; conditions: 18 hours; for Emax: GILZ mRNA relative fold of change; for pEC50: Homo sapiens, HuT78, GILZ mRNA, free drug
Experimental: (§1) In vitro activity and targeted delivery of ADC 12-4, 12-5, 12-6, 12-7, 12-9, 12-10, the isotype-matched negative controls 12-11, 12-12, and naked anti-hCD74 (LL1) control were assessed in HUT-78 an SUDHL-6 cells (CD74 positive T and B lymphoma cell lines respectively) as well as 786-O cells (a CD74 negative renal carcinoma cell line). The cells were treated with individual ADC, anti-hCD74 antibody, or budesonide (Bud) for 18 hours and then glucocorticoid-induced leucine zipper (GILZ) mRNA, a glucocorticoid-regulated gene, was measured by RT-PCR. […] (The activity at the highest concentration in 786-O cells may be due to impurity of the sample or possible low CD74 expression in cells.). The overall activity profile of the ADC is consistent with targeted delivery of a payload (e.g. dexamethasone or budesonide) that is dependent on the binding and internalization of the antibody with its antigen on the cell surface, and on the efficiency of linker cleavage inside the cells.
(§2) The quantitation of Glucocorticoid-induced leucine zipper (GILZ) mRNA expression was determined by real time-PCR. In brief, actively growing cells were harvested and then resuspended in the assay buffer (HBSS plus 2% FBS) at concentration of 1.1×10^6/ml. 5×10^4 cells/well in 45 μl volume were plated to Greiner 384 well v-bottom reagent plates (Ref #781280). […] After 18 hour incubation, the cells were lysed, and the lysates were used for cDNA synthesis and real-time PCR, according to manufacturer's instructions in TaqMan Gene Expression Cells-to-CT™ Kit (Invitrogen, Carlsbad, Calif.). Specific primers against human GILZ and GAPDH were purchased from the Life Technologies (Invitrogen, Carlsbad, Calif.). Real-time PCR reactions were performed on the Applied Biosystems 7900 HT Fast Real-Time PCR System. Thermal cycling conditions consisted of an initial UDG incubation hold (50° C., 2 min) denaturing and enzyme activation step (95° C., 2 min) followed by 40 cycles of denaturing (95° C., 15 s), annealing and extending (60° C., 1 min). The mRNA levels were normalized to GAPDH (internal control) using the formula Δ threshold cycle (CT)=CT target−CT reference. The differential expression signal were expressed as delta Ct (ΔCt) by subtracting the Ct values of the un-stimulated samples (containing only assay buffer or DMSO vehicle) from those of the stimulated samples and expressed as relative fold of change using the formula: 2^ΔΔCT. The graphs were generated in GraphPad Prism and the EC50 values were calculated with non-linear regression curve fit of the data in GraphPad Prism.

[5] = test system: GILZ mRNA in SUDHL-6 cells (CD74 positive B lymphoma); test: GILZ mRNA induction in SUDHL-6 cells (RT-PCR); format: cell-based, human; conditions: 18 hours; for Emax: GILZ mRNA relative fold of change; for pEC50: Homo sapiens, SU-DHL-6, GILZ mRNA, free drug
Experimental: as §1, §2

[6] = test system: GILZ mRNA in 786-O cells (CD74 negative renal carcinoma); test: GILZ mRNA induction in 786-O cells (RT-PCR); format: cell-based, human; conditions: 786-0 cells (CD74(—)), 18 hours; for Emax: GILZ mRNA relative fold of change; for pEC50: Homo sapiens, GILZ mRNA, free drug
Experimental: as §1, §2

[7] = Solubility of drug-linkers in 20% MeCN/H2O; format: physicochemical; conditions: tested at a concentration of 10 mg/mL
Experimental: The solubility of exemplary drug-linker conjugates in aqueous solutions was evaluated. Linkers utilized in drug conjugates may have aqueous solubility to enable conjugation in aqueous media amenable to protein solubilization. Furthermore, linkers with aqueous solubility are considered hydrophilic, and may confer to the drug conjugate a reduced propensity to aggregate relative to standard hydrophobic linkers in the literature. The following exemplary drug-linkers were tested in an aqueous solution comprising 20% acetonitrile (MeCN/H2O) for solubility at a concentration of 10 mg/mL.

[8] = Matrix spiking (lysosomes pretreated with stopping reagent)

In the case of `C[C@@H]1C[C@H]2[C@@H]3CCC4=CC(=O)C=C[C@]4(C)[C@@]3(F)[C@@H](O)C[C@]2(C)[C@@]1(O)C(=O)COP(=O)(O)OCCNC(=O)COC1C#CCCCCC1` (stereo partly drawn) [Drug Linker 4-3, 2-(2-(cyclooct-2-yn-1-yloxy)acetamido)ethyl (2-((8S,9R,10S,11S,13S,14S,16R,17R)-9-fluoro-11,17-dihydroxy-10,13,16-trimethyl-3-oxo-6,7,8,9,10,11,12,13,14,15,16,17-dodecahydro-3H-cyclopenta[a]phenanthren-17-yl)-2-oxoethyl) hydrogen phosphate], the “Calculated Conc. for each compound in human whole blood” value (0 min) was 1539 nM, the “Calculated Conc. for dexamethasone in human whole blood” value (20 min) was 0 nM and the “Calculated Conc. for each compound in human whole blood” value (20 min) was 1861 nM. For the same molecule, the “Calculated Conc. for dexamethasone in human whole blood” value (1 h) was 0 nM, the “Calculated Conc. for each compound in human whole blood” value (1 h) was 1619 nM and the “Calculated Conc. for dexamethasone in human whole blood” value (3 h) was 1 nM. The “Calculated Conc. for each compound in human whole blood” value (3 h) was 1677 nM, the “Calculated Conc. for dexamethasone in human whole blood” value (6 h) was 3 nM and the “Calculated Conc. for each compound in human whole blood” value (6 h) was 2040 nM. For the same molecule, the “Calculated Conc. for dexamethasone rat lysomeal lysate” value ([1]; 0 min) was 0.9 nM, the “Calculated Conc. for each compound in rat lysomal lysate” value ([1]; 0 min) was 888.8 nM and the “Calculated Conc. for dexamethasone rat lysomeal lysate” value ([1]; 5 min) was 14.5 nM. For the same molecule, the “Calculated Conc. for each compound in rat lysomal lysate” value ([1]; 5 min) was 1156.1 nM, the “Calculated Conc. for dexamethasone rat lysomeal lysate” value ([1]; 10 min) was 14.2 nM and the “Calculated Conc. for each compound in rat lysomal lysate” value ([1]; 10 min) was 983.4 nM. For the same molecule, the “Calculated Conc. for dexamethasone rat lysomeal lysate” value ([1]; 15 min) was 22.3 nM, the “Calculated Conc. for each compound in rat lysomal lysate” value ([1]; 15 min) was 1032.6 nM and the “Calculated Conc. for dexamethasone rat lysomeal lysate” value ([1]; 30 min) was 28.9 nM. For the same molecule, the “Calculated Conc. for each compound in rat lysomal lysate” value ([1]; 30 min) was 980.1 nM, the “Calculated Conc. for dexamethasone rat lysomeal lysate” value ([1]; 1 h) was 41.6 nM and the “Calculated Conc. for each compound in rat lysomal lysate” value ([1]; 1 h) was 882.4 nM. The “Calculated Conc. for dexamethasone rat lysomeal lysate” value ([1]; 2 h) was 72.5 nM, the “Calculated Conc. for each compound in rat lysomal lysate” value ([1]; 2 h) was 880.1 nM and the “Calculated Conc. for dexamethasone rat lysomeal lysate” value ([1]; 3 h) was 90.2 nM. For the same molecule, the “Calculated Conc. for each compound in rat lysomal lysate” value ([1]; 3 h) was 903.8 nM, the “Calculated Conc. for dexamethasone rat lysomeal lysate” value ([1]; 6 h) was 141.9 nM and the “Calculated Conc. for each compound in rat lysomal lysate” value ([1]; 6 h) was 858.9 nM. For the same molecule, the “rate of dexamethasone release in rat lysosomal extract (in words)” value [2] was “more slowly released”.
In the case of `C[C@@H]1C[C@H]2[C@@H]3CCC4=CC(=O)C=C[C@]4(C)[C@@]3(F)[C@@H](O)C[C@]2(C)[C@@]1(O)C(=O)CO` [Dexamethasone, dexamethasone, reference compound], the “Calculated Conc. for each compound in human whole blood” value ([3]; 0 m, 37° C.) was 1687 nM, the “Calculated Conc. for each compound in human whole blood” value ([3]; 20 m, 37° C.) was 2409 nM and the “Calculated Conc. for each compound in human whole blood” value ([3]; 1 hr, 37° C.) was 2224 nM. For the same molecule, the “Calculated Conc. for each compound in human whole blood” value ([3]; 3 hr, 37° C.) was 1502 nM, the “Calculated Conc. for each compound in human whole blood” value ([3]; 6 hr, 37° C.) was 2792 nM and the “Calculated Conc. for each compound in human whole blood” value ([3]; Matrix spiking (time 0 sample, blood pretreated with stopping reagent)) was 2939 nM. For the same molecule, the “Calculated Conc. for each compound in rat lysomal lysate” value ([2]; 0 m, 37° C.) was 1456.4 nM, the “Calculated Conc. for each compound in rat lysomal lysate” value ([2]; 5 m, 37° C.) was 1851.2 nM and the “Calculated Conc. for each compound in rat lysomal lysate” value ([2]; 10 m, 37° C.) was 1640.8 nM. For the same molecule, the “Calculated Conc. for each compound in rat lysomal lysate” value ([2]; 15 m, 37° C.) was 1666.7 nM, the “Calculated Conc. for each compound in rat lysomal lysate” value ([2]; 30 m, 37° C.) was 1602.6 nM and the “Calculated Conc. for each compound in rat lysomal lysate” value ([2]; 1 hr, 37° C.) was 1576.8 nM. For the same molecule, the “Calculated Conc. for each compound in rat lysomal lysate” value ([2]; 2 hr, 37° C.) was 1681.0 nM, the “Calculated Conc. for each compound in rat lysomal lysate” value ([2]; 3 hr, 37° C.) was 1689.7 nM and the “Calculated Conc. for each compound in rat lysomal lysate” value ([2]; 6 hr, 37° C.) was 1689.8 nM. The “Calculated Conc. for each compound in rat lysomal lysate” value [2, 8] was 2059.0 nM.
`CCC(=O)O[C@]1(C(=O)SCF)[C@H](C)C[C@H]2[C@@H]3C[C@H](F)C4=CC(=O)C=C[C@]4(C)[C@@]3(F)[C@@H](O)C[C@@]21C` [Fluticasone Propionate, fluticasone propionate] showed an Emax [4] of 10.27, a pEC50 [4] of 9.35 and an Emax [5] of 15.78. For the same molecule, the pEC50 [5] was 9.28, the Emax [6] was 25.38 and the pEC50 [6] was 9.34.
With `C[C@@H]1C[C@H]2[C@@H]3CCC4=CC(=O)C=C[C@]4(C)[C@@]3(F)[C@@H](O)C[C@]2(C)[C@@]1(O)C(=O)COP(=O)(O)Oc1ccc(NC(=O)COC2C#CCCCCC2)cc1` (stereo partly drawn) [Drug Linker 5-3, 4-(2-(cyclooct-2-yn-1-yloxy)acetamido)phenyl (2-((8S,9R,10S,11S,13S,14S,16R,17R)-9-fluoro-11,17-dihydroxy-10,13,16-trimethyl-3-oxo-6,7,8,9,10,11,12,13,14,15,16,17-dodecahydro-3H-cyclopenta[a]phenanthren-17-yl)-2-oxoethyl) hydrogen phosphate] the “Measured Solubility in 20% MeCN/H2O” value [7] was >10000 µg/mL, the “Calculated Conc. for each compound in human whole blood” value ([3]; 0 m, 37° C.) was 1299 nM and the “Calculated Conc. for each compound in human whole blood” value ([3]; 5 m, 37° C.) was 1251 nM. For the same molecule, the “Calculated Conc. for each compound in human whole blood” value ([3]; 15 m, 37° C.) was 1276 nM, the “Calculated Conc. for each compound in human whole blood” value ([3]; 30 m, 37° C.) was 1111 nM and the “Calculated Conc. for each compound in human whole blood” value ([3]; 1 hr, 37° C.) was 937 nM. The “Calculated Conc. for each compound in human whole blood” value ([3]; 2 hr, 37° C.) was 1480 nM, the “Calculated Conc. for each compound in rat lysomal lysate” value ([2]; 0 m, 37° C.) was 1394.08 nM and the “Calculated Conc. for each compound in rat lysomal lysate” value ([2]; 5 m, 37° C.) was 1295.86 nM. The “Calculated Conc. for each compound in rat lysomal lysate” value ([2]; 10 m, 37° C.) was 1278.4 nM, the “Calculated Conc. for each compound in rat lysomal lysate” value ([2]; 15 m, 37° C.) was 1407.73 nM and the “Calculated Conc. for each compound in rat lysomal lysate” value ([2]; 30 m, 37° C.) was 1175.39 nM. For the same molecule, the “Calculated Conc. for each compound in rat lysomal lysate” value ([2]; 1 hr, 37° C.) was 970.65 nM, the “Calculated Conc. for each compound in rat lysomal lysate” value ([2]; 2 hr, 37° C.) was 743.45 nM and the “Calculated Conc. for each compound in rat lysomal lysate” value ([2]; 3 hr, 37° C.) was 500.41 nM. For the same molecule, the “Calculated Conc. for each compound in rat lysomal lysate” value ([2]; 6 hr, 37° C.) was 221.03 nM, the “Calculated Conc. for each compound in rat lysomal lysate” value [2, 8] was 2555.29 nM and the “rate of dexamethasone release in rat lysosomal extract (in words)” value [2] was “more slowly released”.
In the case of “CD74 Ab: anti-CD74 antibody LL1, HC SEQ ID NO:69, LC SEQ ID NO:73, pAzF at position 121”, the Emax [4] was 1.34, the Emax [5] was 1.02 and the Emax [6] was 1.02.
In the case of `CCCC1O[C@@H]2C[C@H]3[C@@H]4CCC5=CC(=O)C=C[C@]5(C)[C@H]4[C@@H](O)C[C@]3(C)[C@]2(C(=O)CO)O1` (some centres unmarked) [Budesonide, budesonide], the Emax [4] was 9.03, the pEC50 [4] was 9.19 and the Emax [5] was 14.33. For the same molecule, the pEC50 [5] was 8.66, the Emax [6] was 25.68 and the pEC50 [6] was 9.24.
